Measured values taken from US7651999B2, “2′, 5′-oligoadenylate analogs” (Sankyo Company, Limited, priority 2002, dated 2010).
pIC50: −log10 of the molar value. Where two headings read alike, the source gives them in different places.

Test system: Human lung cancer cell line A549 cells
Conditions: 72 hours, MTT, 0.001-10 μM tested
[1] = read-out: 50% Growth inhibitory concentrations of the subject compounds with respect to A549 cells, Experiment 1
[2] = read-out: 50% Growth inhibitory concentrations of the subject compounds with respect to A549 cells, Experiment 2
[3] = read-out: 50% Growth inhibitory concentrations of the subject compounds with respect to A549 cells, Experiment 3

Procedure: Human lung cancer cell line A549 cells were plated at a density of 800 cells/200 μl in a 96-well plate using RPMI1640 (Gibco BRL) (containing 10% Fetal Bovine Serum (Hyclone)) for the medium followed by culturing overnight in 5% CO2 at 37° C. Each 2-5A analog was added to each well so that the final concentration became 0.001-10 μM, followed by culturing for 72 hours (3 days) (n=3 or 4). After culturing for 72 hours (3 days), MTT (3-[4,5-dimethylthiazol-2-yl]-2,5-diphenyltetrazolium bromide) was added in 50 μl aliquots to each well at a MTT/RPMI1640 concentration of 5 mg/ml, followed by additionally culturing for 4 hours. After 4 hours, the medium was removed and 150 μl of dimethyl sulfoxide were added to each well. After shaking for 5 minutes, UV absorbance at 540 nm, was measured to determine the relative ratio of the number of viable cells of the compound dose group to the number of viable cells of an untreated cell group followed by calculation of the IC50 concentration that inhibits cell growth by 50%.

Row | SMILES | pIC50 [1] | pIC50 [2] | pIC50 [3]
1 | COC1C(OP(=O)(O)OC[C@H]2O[C@@H](n3cnc4c(N)ncnc43)C(OP(=O)(O)OC[C@]34CCCOC3C(O)[C@H](n3cnc5c(N)ncnc53)O4)C2O)[C@H](n2cnc3c(N)ncnc32)O[C@@H]1COP(O)(O)=S (some centres unmarked) [Example 2] | 5.82 | 6.04 | 
2 | Nc1ncnc2c1ncn2[C@@H]1O[C@H](COP(O)(=S)OC2C(O)[C@@H](COP(O)(=S)OC3C(O)[C@@H](COP(O)(O)=S)O[C@H]3n3cnc4c(N)ncnc43)O[C@H]2n2cnc3c(N)ncnc32)C(O)C1O (some centres unmarked) [Example 4] | 6.32 | 6.21 | 6.42
3 | COC1C(OP(=O)(O)OC[C@H]2O[C@@H](n3cnc4c(N)ncnc43)C(OP(=O)(O)OC[C@]34CCCOC3C(O)[C@H](n3cnc5c(N)ncnc53)O4)C2O)[C@H](n2cnc3c(N)ncnc32)O[C@@H]1COP(=O)(O)SCOC(=O)C(C)(C)C (some centres unmarked) [Example 5] | 6.40 | 6.49 | 
4 | Nc1ncnc2c1ncn2[C@@H]1O[C@@]2(COP(=O)(O)OC3C(O)[C@@H](COP(=O)(S)OC4C(O)[C@@H](COP(=O)(O)S)O[C@H]4n4cnc5c(N)ncnc54)O[C@H]3n3cnc4c(N)ncnc43)CCCOC2C1O (some centres unmarked) [Example 8] | 5.65 |  | 
5 | COC1C(OP(=O)(S)OC[C@H]2O[C@@H](n3cnc4c(N)ncnc43)C(OP(=O)(O)OC[C@]34CCCOC3C(O)[C@H](n3cnc5c(N)ncnc53)O4)C2O)[C@H](n2cnc3c(N)ncnc32)O[C@@H]1COP(=O)(O)SCOC(=O)C(C)(C)C (some centres unmarked) [Example 9] | 5.86 |  | 
6 | COC1C(OP(=O)(O)OC[C@H]2O[C@@H](n3cnc4c(N)ncnc43)C(OP(=O)(O)OC[C@]34CCCOC3C(O)[C@H](n3cnc5c(N)ncnc53)O4)C2O)[C@H](n2cnc3c(N)ncnc32)O[C@@H]1COP(=O)(O)SCCOC(=O)C(C)(C)C (some centres unmarked) [Example 13] |  | 5.60 | 
7 | COC1C(OP(=O)(O)OC[C@H]2O[C@@H](n3cnc4c(N)ncnc43)C(OP(=O)(O)OC[C@]34CCCOC3C(O)[C@H](n3cnc5c(N)ncnc53)O4)C2O)[C@H](n2cnc3c(N)ncnc32)O[C@@H]1COP(=O)(O)SCCOC(=O)c1ccccc1 (some centres unmarked) [Example 14] |  | 5.63 | 
8 | CCCCCCCCCCCCCC(=O)OCCSP(=O)(O)OC[C@H]1O[C@@H](n2cnc3c(N)ncnc32)C(OP(=O)(O)OC[C@H]2O[C@@H](n3cnc4c(N)ncnc43)C(OP(=O)(O)OC[C@]34CCCOC3C(O)[C@H](n3cnc5c(N)ncnc53)O4)C2O)C1OC (some centres unmarked) [Example 16] |  | 7.05 | 
9 | CCCCCCCCCC(=O)OCCSP(=O)(O)OC[C@H]1O[C@@H](n2cnc3c(N)ncnc32)C(OP(=O)(O)OC[C@H]2O[C@@H](n3cnc4c(N)ncnc43)C(OP(=O)(O)OC[C@]34CCCOC3C(O)[C@H](n3cnc5c(N)ncnc53)O4)C2O)C1OC (some centres unmarked) [Example 17] |  | 6.46 | 
10 | COC1C(OP(=O)(O)OC[C@H]2O[C@@H](n3cnc4c(N)ncnc43)C(OP(=O)(O)OC[C@]34CCCOC3C(O)[C@H](n3cnc5c(N)ncnc53)O4)C2O)[C@H](n2cnc3c(N)ncnc32)O[C@@H]1COP(=O)(O)SCCO (some centres unmarked) [Example 33] |  |  | 5.67
